System: MV-4-11 cells
Assay: Gene expression microarray analysis (Affymetrix PrimeView) and GSEA
Type: cell-based, human
Parameters: RFU PODN (11730768_x_at) / Fold change /veh PODN (11730768_x_at) / RFU LINC00158 (11744669_a_at) / Fold change /veh LINC00158 (11744669_a_at) / RFU DUSP10 (11751237_a_at) / Fold change /veh DUSP10 (11751237_a_at) / RFU ID3 (11757404_x_at) / Fold change /veh ID3 (11757404_x_at) / RFU PLEKHG5 (11737974_s_at) / Fold change /veh PLEKHG5 (11737974_s_at) / RFU LRRC4B (11730491_at) / Fold change /veh LRRC4B (11730491_at) / RFU GIMAP4 (11747438_a_at) / Fold change /veh GIMAP4 (11747438_a_at) / RFU KRT8 (11758183_x_at) / Fold change /veh KRT8 (11758183_x_at) / RFU CNN1 (11734310_a_at) / Fold change /veh CNN1 (11734310_a_at) / RFU VPS37D (11726825_at) / Fold change /veh VPS37D (11726825_at) / RFU C10orf10 (11716522_x_at) / Fold change /veh C10orf10 (11716522_x_at) / RFU KIR2DL2 /// KIR2DL4 /// KIR2DL5A /// KIR2DL5B /// KIR2DS1 /// KIR2DS2 /// KIR2DS3 /// KIR2DS4 /// KIR3DL3 /// KIR3DL3 /// KIR3DS1 (11738374_at) / Fold change /veh KIR2DL2 /// KIR2DL4 /// KIR2DL5A /// KIR2DL5B /// KIR2DS1 /// KIR2DS2 /// KIR2DS3 /// KIR2DS4 /// KIR3DL3 /// KIR3DL3 /// KIR3DS1 (11738374_at) / RFU C1QL1 (11718748_at) / Fold change /veh C1QL1 (11718748_at) / RFU TMPRSS4 (11747572_a_at) / Fold change /veh TMPRSS4 (11747572_a_at) / RFU HAMP (11756126_x_at) / Fold change /veh HAMP (11756126_x_at) / RFU RNFT2 (11725882_a_at) / Fold change /veh RNFT2 (11725882_a_at) / RFU NR4A2 (11747474_a_at) / Fold change /veh NR4A2 (11747474_a_at) / RFU ABCC12 (11746883_a_at) / Fold change /veh ABCC12 (11746883_a_at) / RFU TMEM136 (11760407_x_at) / Fold change /veh TMEM136 (11760407_x_at) / RFU CLDN22 /// WWC2 (11732394_at) / Fold change /veh CLDN22 /// WWC2 (11732394_at) / RFU HLA-DPB1 (11760878_x_at) / Fold change /veh HLA-DPB1 (11760878_x_at) / RFU SPINT1 (11716480_a_at) / Fold change /veh SPINT1 (11716480_a_at) / RFU GAP43 (11754022_s_at) / Fold change /veh GAP43 (11754022_s_at) / RFU A4GNT (11735810_at) / Fold change /veh A4GNT (11735810_at) / RFU PRB3 (11715151_x_at) / Fold change /veh PRB3 (11715151_x_at) / RFU TUBB4B (11761932_at) / Fold change /veh TUBB4B (11761932_at) / RFU CAPN14 (11732068_a_at) / Fold change /veh CAPN14 (11732068_a_at) / RFU TMCC2 (11721928_a_at) / Fold change /veh TMCC2 (11721928_a_at) / RFU IRGQ (11745062_a_at) / Fold change /veh IRGQ (11745062_a_at) / RFU FAM174B (11720279_a_at) / Fold change /veh FAM174B (11720279_a_at) / RFU TMPRSS4 (11748680_a_at) / Fold change /veh TMPRSS4 (11748680_a_at) / RFU FAM212B (11763350_a_at) / Fold change /veh FAM212B (11763350_a_at) / RFU PLEKHG5 (11743358_a_at) / Fold change /veh PLEKHG5 (11743358_a_at) / RFU ZSCAN30 (11745921_a_at) / Fold change /veh ZSCAN30 (11745921_a_at) / RFU CMKLR1 (11741424_a_at) / Fold change /veh CMKLR1 (11741424_a_at) / RFU LOC101060620 /// MAPK8IP1 (11723275_at) / Fold change /veh LOC101060620 /// MAPK8IP1 (11723275_at) / RFU SPTSSB (11747773_x_at) / Fold change /veh SPTSSB (11747773_x_at) / RFU PRSS12 (11739890_at) / Fold change /veh PRSS12 (11739890_at) / RFU BIN1 (11741810_x_at) / Fold change /veh BIN1 (11741810_x_at) / RFU WNT11 (11732464_a_at) / Fold change /veh WNT11 (11732464_a_at) / RFU C10orf10 (11716521_a_at) / Fold change /veh C10orf10 (11716521_a_at) / RFU C5orf56 (11738089_at) / Fold change /veh C5orf56 (11738089_at) / RFU CYB561 (11721691_x_at) / Fold change /veh CYB561 (11721691_x_at) / RFU ANKRD19P (11752326_a_at) / Fold change /veh ANKRD19P (11752326_a_at) / RFU OR2T12 /// OR2T33 /// OR2T8 (11738714_s_at) / Fold change /veh OR2T12 /// OR2T33 /// OR2T8 (11738714_s_at) / RFU VCAN (11748164_a_at) / Fold change /veh VCAN (11748164_a_at) / RFU JSRP1 (11732532_at) / Fold change /veh JSRP1 (11732532_at) / RFU KRTAP10-11 (11738290_x_at) / Fold change /veh KRTAP10-11 (11738290_x_at) / RFU MYO3A (11730013_a_at) / Fold change /veh MYO3A (11730013_a_at) / RFU EBF3 (11725865_a_at) / Fold change /veh EBF3 (11725865_a_at) / RFU CAMK2N1 (11719241_x_at) / Fold change /veh CAMK2N1 (11719241_x_at) / RFU C5orf56 (11738088_a_at) / Fold change /veh C5orf56 (11738088_a_at) / RFU OLFML3 (11715873_a_at) / Fold change /veh OLFML3 (11715873_a_at) / RFU LOC100653217 /// NTM (11731650_a_at) / Fold change /veh LOC100653217 /// NTM (11731650_a_at) / RFU MAPK11 (11762145_a_at) / Fold change /veh MAPK11 (11762145_a_at) / RFU FIZ1 (11724087_x_at) / Fold change /veh FIZ1 (11724087_x_at) / RFU OASL (11726364_x_at) / Fold change /veh OASL (11726364_x_at) / RFU SOX15 (11748057_x_at) / Fold change /veh SOX15 (11748057_x_at) / RFU CD79A (11719716_a_at) / Fold change /veh CD79A (11719716_a_at) / RFU HIST1H1D (11736915_at) / Fold change /veh HIST1H1D (11736915_at) / RFU CASKIN2 (11723855_a_at) / Fold change /veh CASKIN2 (11723855_a_at) / RFU LOC730098 (11760151_x_at) / Fold change /veh LOC730098 (11760151_x_at) / RFU OR4N2 (11742367_at) / Fold change /veh OR4N2 (11742367_at) / RFU PRRT2 (11749266_a_at) / Fold change /veh PRRT2 (11749266_a_at) / RFU SNX32 (11753110_a_at) / Fold change /veh SNX32 (11753110_a_at) / RFU CDHR5 (11726645_a_at) / Fold change /veh CDHR5 (11726645_a_at) / RFU RCAN1 (11760418_a_at) / Fold change /veh RCAN1 (11760418_a_at) / RFU FAM167A (11723789_a_at) / Fold change /veh FAM167A (11723789_a_at) / RFU FAM26E (11764081_at) / Fold change /veh FAM26E (11764081_at) / RFU ISYNA1 (11749810_s_at) / Fold change /veh ISYNA1 (11749810_s_at) / RFU ACY1 (11761880_at) / Fold change /veh ACY1 (11761880_at) / RFU 11764098_at / Fold change /veh 11764098_at / RFU SAMD14 (11745864_x_at) / Fold change /veh SAMD14 (11745864_x_at) / RFU NPB (11741838_a_at) / Fold change /veh NPB (11741838_a_at) / RFU TMPRSS6 (11731388_a_at) / Fold change /veh TMPRSS6 (11731388_a_at) / RFU KRTAP10-2 (11738614_at) / Fold change /veh KRTAP10-2 (11738614_at) / RFU ARHGAP8 /// PRR5-ARHGAP8 (11727945_x_at) / Fold change /veh ARHGAP8 /// PRR5-ARHGAP8 (11727945_x_at) / RFU KRTAP5-7 /// NADSYN1 (11734609_at) / Fold change /veh KRTAP5-7 /// NADSYN1 (11734609_at) / RFU RASL12 (11751679_a_at) / Fold change /veh RASL12 (11751679_a_at) / RFU CDKN2B (11736163_a_at) / Fold change /veh CDKN2B (11736163_a_at) / RFU PRF1 (11729649_at) / Fold change /veh PRF1 (11729649_at) / RFU, ZNF638 /// ZNF638-IT1 / Fold change vs veh, ZNF638 /// ZNF638-IT1 / RFU, PANK3 / Fold change vs veh, PANK3 / RFU, SH3YL1 / Fold change vs veh, SH3YL1 / RFU, ZEB2 / Fold change vs veh, ZEB2 / RFU, NRIP1 / Fold change vs veh, NRIP1 / RFU, PTTG1IP / Fold change vs veh, PTTG1IP / RFU, CAPN2 / Fold change vs veh, CAPN2 / RFU, MED14 / Fold change vs veh, MED14 / RFU, SNORA58 / Fold change vs veh, SNORA58 / RFU, C1orf63 / Fold change vs veh, C1orf63 / RFU, LRRFIP1 / Fold change vs veh, LRRFIP1 / RFU, NDUFAF7 / Fold change vs veh, NDUFAF7 / RFU, SLC12A2 / Fold change vs veh, SLC12A2 / RFU, IBTK / Fold change vs veh, IBTK / RFU, ESF1 / Fold change vs veh, ESF1 / Fold change vs veh, TMEM50B / RFU, TAOK1 / Fold change vs veh, TAOK1 / RFU, ACBD3 / Fold change vs veh, ACBD3 / RFU, TMA16 / Fold change vs veh, TMA16 / RFU, RWDD3 / Fold change vs veh, RWDD3 / RFU, BCAT1 / Fold change vs veh, BCAT1 / RFU, EDEM3 / Fold change vs veh, EDEM3 / RFU, TMEM33 / Fold change vs veh, TMEM33 / RFU, WDR75 / Fold change vs veh, WDR75 / RFU, AHCTF1 / Fold change vs veh, AHCTF1 / RFU, TFRC / Fold change vs veh, TFRC / RFU, ZDHHC17 / Fold change vs veh, ZDHHC17 / RFU, NOM1 / Fold change vs veh, NOM1 / RFU, ARL8B / Fold change vs veh, ARL8B / RFU, ZBTB11 / Fold change vs veh, ZBTB11 / RFU, TAMM41 / Fold change vs veh, TAMM41 / RFU, KIAA1704 /// LOC100996395 / Fold change vs veh, KIAA1704 /// LOC100996395 / RFU, ING1 / Fold change vs veh, ING1 / RFU, TRMT61B / Fold change vs veh, TRMT61B / RFU, FUBP3 / Fold change vs veh, FUBP3 / RFU, TP53 / Fold change vs veh, TP53 / RFU, TNKS2 / Fold change vs veh, TNKS2 / RFU, ZFP14 / Fold change vs veh, ZFP14 / RFU, ACTR2 / Fold change vs veh, ACTR2 / RFU, PPP3R1 / Fold change vs veh, PPP3R1 / RFU, PIK3R1 / Fold change vs veh, PIK3R1 / RFU, HNRNPA1 / Fold change vs veh, HNRNPA1 / RFU, RNF170 / Fold change vs veh, RNF170 / RFU, ZNF28 / Fold change vs veh, ZNF28 / RFU, RNGTT / Fold change vs veh, RNGTT / RFU, OGT / Fold change vs veh, OGT / RFU, BRD1 / Fold change vs veh, BRD1 / RFU, MARS / Fold change vs veh, MARS / RFU, ZNF655 / Fold change vs veh, ZNF655 / RFU, FAHD1 / Fold change vs veh, FAHD1 / RFU, BDP1 / Fold change vs veh, BDP1 / RFU, LRRCC1 / Fold change vs veh, LRRCC1 / RFU, ARID1A / Fold change vs veh, ARID1A / RFU, ZNF146 / Fold change vs veh, ZNF146 / RFU, ZNF330 / Fold change vs veh, ZNF330 / RFU, GPN3 / Fold change vs veh, GPN3 / RFU, C9orf123 / Fold change vs veh, C9orf123 / RFU, N4BP2L2 / Fold change vs veh, N4BP2L2 / RFU, ARFIP1 / Fold change vs veh, ARFIP1 / RFU, FAM179B / Fold change vs veh, FAM179B / RFU, BCL10 / Fold change vs veh, BCL10 / RFU, UHRF1BP1L / Fold change vs veh, UHRF1BP1L / RFU, BET1 / Fold change vs veh, BET1 / RFU, CNOT2 / Fold change vs veh, CNOT2 / RFU, ZNF268 / Fold change vs veh, ZNF268 / Fold change vs veh, ZNF507 / RFU, DGCR2 / Fold change vs veh, DGCR2 / RFU, WDSUB1 / Fold change vs veh, WDSUB1 / Fold change vs veh, HSP90B1 /// MIR3652 / RFU, ADSS / Fold change vs veh, ADSS / RFU, GK / Fold change vs veh, GK / RFU, ZNF148 / Fold change vs veh, ZNF148 / RFU, TAF9 / Fold change vs veh, TAF9 / RFU, SLC1A5 / Fold change vs veh, SLC1A5 / RFU, SLMO2 / Fold change vs veh, SLMO2 / RFU, ABCC4 / Fold change vs veh, ABCC4 / RFU, LOC101060439 /// RAP1B / Fold change vs veh, LOC101060439 /// RAP1B / RFU, RFX7 / Fold change vs veh, RFX7 / RFU, GTPBP10 / Fold change vs veh, GTPBP10 / RFU, CNEP1R1 / Fold change vs veh, CNEP1R1 / RFU, BIVM-ERCC5 /// ERCC5 / Fold change vs veh, BIVM-ERCC5 /// ERCC5 / RFU, ILF3 / Fold change vs veh, ILF3 / RFU 11762660_at / Fold change /veh 11762660_at / RFU VCAN (11757783_s_at) / Fold change /veh VCAN (11757783_s_at) / RFU DDX43 (11728927_at) / Fold change /veh DDX43 (11728927_at) / RFU KRT8 (11758188_x_at) / Fold change /veh KRT8 (11758188_x_at) / RFU NKD1 (11759106_at) / Fold change /veh NKD1 (11759106_at) / RFU SRD5A1 (11742802_a_at) / Fold change /veh SRD5A1 (11742802_a_at) / RFU TPSAB1 /// TPSB2 (11721975_s_at) / Fold change /veh TPSAB1 /// TPSB2 (11721975_s_at) / RFU GSTM3 (11746129_a_at) / Fold change /veh GSTM3 (11746129_a_at) / RFU IL23R (11737362_x_at) / Fold change /veh IL23R (11737362_x_at) / RFU TMEM51 (11727254_a_at) / Fold change /veh TMEM51 (11727254_a_at) / RFU PIWIL2 (11732686_x_at) / Fold change /veh PIWIL2 (11732686_x_at) / RFU ORM1 (11744905_x_at) / Fold change /veh ORM1 (11744905_x_at) / RFU CCDC152 (11743942_at) / Fold change /veh CCDC152 (11743942_at) / RFU ECM1 (11717891_a_at) / Fold change /veh ECM1 (11717891_a_at) / RFU IL23R (11748794_a_at) / Fold change /veh IL23R (11748794_a_at) / RFU TNFAIP8L3 (11732012_x_at) / Fold change /veh TNFAIP8L3 (11732012_x_at) / RFU MBOAT4 (11741988_at) / Fold change /veh MBOAT4 (11741988_at) / RFU 11764193_at / Fold change /veh 11764193_at / RFU TMEM53 (11763286_at) / Fold change /veh TMEM53 (11763286_at) / RFU MAGEB2 (11727129_at) / Fold change /veh MAGEB2 (11727129_at) / RFU TMEM200A (11744735_a_at) / Fold change /veh TMEM200A (11744735_a_at) / RFU CCDC152 (11751479_a_at) / Fold change /veh CCDC152 (11751479_a_at) / RFU FAM211A (11726209_a_at) / Fold change /veh FAM211A (11726209_a_at) / RFU RGS16 (11746705_a_at) / Fold change /veh RGS16 (11746705_a_at) / RFU VCAN (11755009_s_at) / Fold change /veh VCAN (11755009_s_at) / RFU RHOB (11743442_s_at) / Fold change /veh RHOB (11743442_s_at) / RFU RGS16 (11720943_a_at) / Fold change /veh RGS16 (11720943_a_at) / RFU RGS16 (11720944_at) / Fold change /veh RGS16 (11720944_at) / RFU, VPS4B / Fold change vs veh, VPS4B / RFU, CREB1 / Fold change vs veh, CREB1 / RFU, DNAJC13 / Fold change vs veh, DNAJC13 / RFU, GNAQ / Fold change vs veh, GNAQ / RFU, CDK5R1 / Fold change vs veh, CDK5R1 / RFU, ZRANB3 / Fold change vs veh, ZRANB3 / RFU, CUL4A / Fold change vs veh, CUL4A / RFU, CCNY / Fold change vs veh, CCNY / RFU, UFL1 / Fold change vs veh, UFL1 / RFU, COG3 / Fold change vs veh, COG3 / RFU, DIAPH2 / Fold change vs veh, DIAPH2 / RFU, SKA2 / Fold change vs veh, SKA2 / RFU, AFF3 / Fold change vs veh, AFF3 / RFU, LMF1 / Fold change vs veh, LMF1 / RFU, IPO11 / Fold change vs veh, IPO11 / RFU, DFFB / Fold change vs veh, DFFB / RFU, FOXP1 / Fold change vs veh, FOXP1 / RFU, CARD8 / Fold change vs veh, CARD8 / RFU, STRN3 / Fold change vs veh, STRN3 / RFU, ADK / Fold change vs veh, ADK / RFU, RASSF2 / Fold change vs veh, RASSF2 / RFU, WIPF1 / Fold change vs veh, WIPF1 / RFU, LARP1B / Fold change vs veh, LARP1B / RFU, RASA1 / Fold change vs veh, RASA1 / RFU, RB1 / Fold change vs veh, RB1 / RFU, PPFIA1 / Fold change vs veh, PPFIA1 / RFU, MAT2A / Fold change vs veh, MAT2A / RFU, CCT5 / Fold change vs veh, CCT5 / RFU, WDR92 / Fold change vs veh, WDR92 / RFU, CUX1 / Fold change vs veh, CUX1 / RFU, TTC7A / Fold change vs veh, TTC7A / RFU, TMEM135 / Fold change vs veh, TMEM135 / RFU, DEPTOR / Fold change vs veh, DEPTOR / RFU, CPM / Fold change vs veh, CPM / RFU, DNAJB6 / Fold change vs veh, DNAJB6 / RFU, CACNA2D3 / Fold change vs veh, CACNA2D3 / RFU, DTX4 / Fold change vs veh, DTX4 / RFU, TFCP2 / Fold change vs veh, TFCP2 / RFU, GMCL1 /// GMCL1P1 / Fold change vs veh, GMCL1 /// GMCL1P1 / RFU, AEBP2 / Fold change vs veh, AEBP2 / RFU, SNHG1 /// SNORD22 /// SNORD25 /// SNORD26 /// SNORD27 /// SNORD28 /// SNORD29 /// SNORD31 / Fold change vs veh, SNHG1 /// SNORD22 /// SNORD25 /// SNORD26 /// SNORD27 /// SNORD28 /// SNORD29 /// SNORD31 / Fold change (Aza/veh), C12orf56 (ProbeSet 11735607_a_at) / Fold change (ACY-1035/veh), C12orf56 (ProbeSet 11735607_a_at) / Fold change (Aza/veh), FGFR1OP (ProbeSet 11751329_s_at) / Fold change (ACY-1035/veh), FGFR1OP (ProbeSet 11751329_s_at) / Fold change (Aza/veh), VPS36 (ProbeSet 11739960_a_at) / Fold change (ACY-1035/veh), VPS36 (ProbeSet 11739960_a_at) / RFU SYPL1 (11715823_x_at) / Fold change /veh SYPL1 (11715823_x_at) / RFU IGFBP7 (11715501_s_at) / Fold change /veh IGFBP7 (11715501_s_at) / RFU REEP3 (11722064_at) / Fold change /veh REEP3 (11722064_at) / RFU IGLL1 (11728026_x_at) / Fold change /veh IGLL1 (11728026_x_at): dose or concentration left out as unconfirmed
Details: MV-4-11 cells, 48 hours

With `Nc1ccc(-c2cccs2)cc1NC(=O)c1ccc2c(c1)cc(C1CC1)n2CCN1CCOCC1` [ACY-1035] the “Fold change /veh GSTM3 (11746129_a_at)” value was 0.96.

From paper PMC5218480 (PLoS ONE, 2017)
